Measurements published in PubChem BioAssay (NCI).
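Where inhibition never reached the appropriate level, the endpoint shown equals the highest concentration tested. Otherwise, values were interpolated linearly from a five-concentration, 48-hour dose response in 96-well plates. TGI: total growth inhibition.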

Key:
Test in all cases: growth of human tumour cells (NCI), 48 h
MDA-N = tested on: MDA-N
MALME-3M melanoma = tested on: MALME-3M melanoma
SF-268 CNS = tested on: SF-268 CNS
U251 CNS = tested on: U251 CNS
T-47D breast = tested on: T-47D breast
SNB-19 CNS = tested on: SNB-19 CNS
UO-31 renal = tested on: UO-31 renal
RXF 393 renal = tested on: RXF 393 renal
SK-MEL-5 melanoma = tested on: SK-MEL-5 melanoma
SF-539 CNS = tested on: SF-539 CNS
HOP-62 NSCLC = tested on: HOP-62 NSCLC
HT29 colon = tested on: HT29 colon
SK-OV-3 ovarian = tested on: SK-OV-3 ovarian
OVCAR-8 ovarian = tested on: OVCAR-8 ovarian
IGROV1 ovarian = tested on: IGROV1 ovarian
HCC-2998 colon = tested on: HCC-2998 colon
EKVX NSCLC = tested on: EKVX NSCLC
ACHN renal = tested on: ACHN renal
NCI-H460 lung = tested on: NCI-H460 lung
COLO 205 colon = tested on: COLO 205 colon
CAKI-1 renal = tested on: CAKI-1 renal
HS 578T breast = tested on: HS 578T breast
MOLT-4 leukemia = tested on: MOLT-4 leukemia
SK-MEL-28 melanoma = tested on: SK-MEL-28 melanoma
UACC-257 melanoma = tested on: UACC-257 melanoma
SNB-75 CNS = tested on: SNB-75 CNS
DU-145 prostate = tested on: DU-145 prostate
RPMI-8226 leukemia = tested on: RPMI-8226 leukemia
OVCAR-5 ovarian = tested on: OVCAR-5 ovarian
OVCAR-3 ovarian = tested on: OVCAR-3 ovarian
MCF7 breast = tested on: MCF7 breast
SF-295 CNS = tested on: SF-295 CNS
OVCAR-4 ovarian = tested on: OVCAR-4 ovarian
MDA-MB-231 breast = tested on: MDA-MB-231 breast
HCT-15 colon = tested on: HCT-15 colon
CCRF-CEM leukemia = tested on: CCRF-CEM leukemia
KM12 colon = tested on: KM12 colon
M14 melanoma = tested on: M14 melanoma
MDA-MB-435 = tested on: MDA-MB-435
K-562 leukemia = tested on: K-562 leukemia
HOP-92 NSCLC = tested on: HOP-92 NSCLC
SW-620 colon = tested on: SW-620 colon
NCI-H522 lung = tested on: NCI-H522 lung
UACC-62 melanoma = tested on: UACC-62 melanoma
A549 NSCLC = tested on: A549 NSCLC
BT-549 breast = tested on: BT-549 breast
NCI/ADR-RES ovarian = tested on: NCI/ADR-RES ovarian
HCT-116 colon = tested on: HCT-116 colon
LOX IMVI melanoma = tested on: LOX IMVI melanoma
TK-10 renal = tested on: TK-10 renal
PC-3 prostate = tested on: PC-3 prostate
NCI-H226 lung = tested on: NCI-H226 lung
SN12C renal = tested on: SN12C renal
NCI-H23 lung = tested on: NCI-H23 lung
SR leukemia = tested on: SR leukemia
786-0 renal = tested on: 786-0 renal
SK-MEL-2 melanoma = tested on: SK-MEL-2 melanoma
HL-60(TB) leukemia = tested on: HL-60(TB) leukemia
A498 renal = tested on: A498 renal
DMS 114 small cell lung = tested on: DMS 114 small cell lung
DMS 273 small cell lung = tested on: DMS 273 small cell lung
HOP-18 NSCLC = tested on: HOP-18 NSCLC
KM20L2 colon = tested on: KM20L2 colon
M19-MEL melanoma = tested on: M19-MEL melanoma
SNB-78 CNS = tested on: SNB-78 CNS
DLD-1 colon = tested on: DLD-1 colon
LXFL 529 NSCLC = tested on: LXFL 529 NSCLC
XF 498 CNS = tested on: XF 498 CNS

## CCOC(=O)c1c(C)n(CCN2CCN(C)CC2)c2ccc(OC)cc12
MDA-N
  TGI: 39.4 µM
MALME-3M melanoma
  TGI: 74.6 µM
SF-268 CNS
  TGI: > 100 µM
U251 CNS
  TGI: > 100 µM
T-47D breast
  TGI: > 100 µM
SNB-19 CNS
  TGI: > 100 µM
UO-31 renal
  TGI: > 100 µM
RXF 393 renal
  TGI: > 100 µM
SK-MEL-5 melanoma
  TGI: 30.8 µM
SF-539 CNS
  TGI: 87.1 µM
HOP-62 NSCLC
  TGI: > 100 µM
HT29 colon
  TGI: 71.2 µM
SK-OV-3 ovarian
  TGI: > 100 µM
OVCAR-8 ovarian
  TGI: > 100 µM
IGROV1 ovarian
  TGI: > 100 µM
HCC-2998 colon
  TGI: 30.7 µM
EKVX NSCLC
  TGI: > 100 µM
ACHN renal
  TGI: > 100 µM
NCI-H460 lung
  TGI: > 100 µM
COLO 205 colon
  TGI: 31.6 µM
CAKI-1 renal
  TGI: > 100 µM
HS 578T breast
  TGI: > 100 µM
MOLT-4 leukemia
  TGI: 68 µM
SK-MEL-28 melanoma
  TGI: 32 µM
UACC-257 melanoma
  TGI: 31.1 µM
SNB-75 CNS
  TGI: > 100 µM
DU-145 prostate
  TGI: > 100 µM
RPMI-8226 leukemia
  TGI: 49.6 µM
OVCAR-5 ovarian
  TGI: > 100 µM
OVCAR-3 ovarian
  TGI: > 100 µM
MCF7 breast
  TGI: > 100 µM
SF-295 CNS
  TGI: > 100 µM
OVCAR-4 ovarian
  TGI: > 100 µM
MDA-MB-231 breast
  TGI: > 100 µM
HCT-15 colon
  TGI: 95.8 µM
CCRF-CEM leukemia
  TGI: 71.4 µM
KM12 colon
  TGI: > 100 µM
M14 melanoma
  TGI: 30.8 µM
MDA-MB-435
  TGI: 56.2 µM
K-562 leukemia
  TGI: 45.8 µM
HOP-92 NSCLC
  TGI: 80.5 µM
SW-620 colon
  TGI: > 100 µM
NCI-H522 lung
  TGI: > 100 µM
UACC-62 melanoma
  TGI: 30.7 µM
A549 NSCLC
  TGI: > 100 µM
BT-549 breast
  TGI: > 100 µM
NCI/ADR-RES ovarian
  TGI: > 100 µM
HCT-116 colon
  TGI: > 100 µM
LOX IMVI melanoma
  TGI: 35.1 µM
TK-10 renal
  TGI: > 100 µM
PC-3 prostate
  TGI: > 100 µM
NCI-H226 lung
  TGI: 72 µM
SN12C renal
  TGI: > 100 µM
NCI-H23 lung
  TGI: > 100 µM
SR leukemia
  TGI: 46.3 µM
786-0 renal
  TGI: > 100 µM
SK-MEL-2 melanoma
  TGI: 35.3 µM
HL-60(TB) leukemia
  TGI: 58 µM
A498 renal
  TGI: 73.8 µM

## O=C1CCCc2c(O)ccc(O)c21
MALME-3M melanoma
  TGI: > 100 µM
SF-268 CNS
  TGI: > 100 µM
U251 CNS
  TGI: > 100 µM
SNB-19 CNS
  TGI: > 100 µM
UO-31 renal
  TGI: > 100 µM
RXF 393 renal
  TGI: > 100 µM
DMS 114 small cell lung
  TGI: 74.9 µM
SK-MEL-5 melanoma
  TGI: > 100 µM
SF-539 CNS
  TGI: > 100 µM
HOP-62 NSCLC
  TGI: > 100 µM
HT29 colon
  TGI: > 100 µM
DMS 273 small cell lung
  TGI: > 100 µM
SK-OV-3 ovarian
  TGI: > 100 µM
OVCAR-8 ovarian
  TGI: > 100 µM
IGROV1 ovarian
  TGI: > 100 µM
HCC-2998 colon
  TGI: > 100 µM
EKVX NSCLC
  TGI: > 100 µM
ACHN renal
  TGI: > 100 µM
NCI-H460 lung
  TGI: > 100 µM
COLO 205 colon
  TGI: > 100 µM
MOLT-4 leukemia
  TGI: > 100 µM
SK-MEL-28 melanoma
  TGI: > 100 µM
UACC-257 melanoma
  TGI: > 100 µM
SNB-75 CNS
  TGI: > 100 µM
RPMI-8226 leukemia
  TGI: > 100 µM
OVCAR-5 ovarian
  TGI: > 100 µM
OVCAR-3 ovarian
  TGI: > 100 µM
HOP-18 NSCLC
  TGI: > 100 µM
SF-295 CNS
  TGI: > 100 µM
OVCAR-4 ovarian
  TGI: > 100 µM
KM20L2 colon
  TGI: > 100 µM
HCT-15 colon
  TGI: > 100 µM
CCRF-CEM leukemia
  TGI: 71.7 µM
KM12 colon
  TGI: > 100 µM
M14 melanoma
  TGI: > 100 µM
K-562 leukemia
  TGI: > 100 µM
M19-MEL melanoma
  TGI: > 100 µM
SW-620 colon
  TGI: > 100 µM
NCI-H522 lung
  TGI: 25.7 µM
UACC-62 melanoma
  TGI: > 100 µM
A549 NSCLC
  TGI: > 100 µM
HCT-116 colon
  TGI: > 100 µM
LOX IMVI melanoma
  TGI: > 100 µM
TK-10 renal
  TGI: > 100 µM
NCI-H226 lung
  TGI: > 100 µM
SN12C renal
  TGI: > 100 µM
NCI-H23 lung
  TGI: > 100 µM
SR leukemia
  TGI: 91.2 µM
786-0 renal
  TGI: > 100 µM
SNB-78 CNS
  TGI: > 100 µM
SK-MEL-2 melanoma
  TGI: > 100 µM
DLD-1 colon
  TGI: > 100 µM
HL-60(TB) leukemia
  TGI: 53.5 µM
A498 renal
  TGI: > 100 µM
LXFL 529 NSCLC
  TGI: > 100 µM

## OCC(O)C(OC1OC(CO)C(O)C(O)C1O)c1nn(-c2ccc(F)cc2)c2nc3cc(Cl)c(Cl)cc3cc12 (stereo not given)
MALME-3M melanoma
  TGI: > 100 µM
SF-268 CNS
  TGI: > 100 µM
U251 CNS
  TGI: > 100 µM
SNB-19 CNS
  TGI: > 100 µM
UO-31 renal
  TGI: > 100 µM
RXF 393 renal
  TGI: > 100 µM
DMS 114 small cell lung
  TGI: > 100 µM
SF-539 CNS
  TGI: > 100 µM
HOP-62 NSCLC
  TGI: > 100 µM
HT29 colon
  TGI: > 100 µM
SK-OV-3 ovarian
  TGI: > 100 µM
OVCAR-8 ovarian
  TGI: > 100 µM
HCC-2998 colon
  TGI: > 100 µM
EKVX NSCLC
  TGI: > 100 µM
ACHN renal
  TGI: > 100 µM
NCI-H460 lung
  TGI: > 100 µM
MOLT-4 leukemia
  TGI: > 100 µM
SK-MEL-28 melanoma
  TGI: > 100 µM
UACC-257 melanoma
  TGI: > 100 µM
SNB-75 CNS
  TGI: > 100 µM
RPMI-8226 leukemia
  TGI: > 100 µM
OVCAR-5 ovarian
  TGI: > 100 µM
OVCAR-3 ovarian
  TGI: > 100 µM
SF-295 CNS
  TGI: > 100 µM
OVCAR-4 ovarian
  TGI: > 100 µM
KM20L2 colon
  TGI: > 100 µM
HCT-15 colon
  TGI: > 100 µM
CCRF-CEM leukemia
  TGI: > 100 µM
KM12 colon
  TGI: > 100 µM
M14 melanoma
  TGI: > 100 µM
K-562 leukemia
  TGI: > 100 µM
M19-MEL melanoma
  TGI: > 100 µM
NCI-H522 lung
  TGI: > 100 µM
UACC-62 melanoma
  TGI: > 100 µM
HCT-116 colon
  TGI: > 100 µM
LOX IMVI melanoma
  TGI: > 100 µM
TK-10 renal
  TGI: > 100 µM
SN12C renal
  TGI: > 100 µM
NCI-H23 lung
  TGI: > 100 µM
SR leukemia
  TGI: > 100 µM
786-0 renal
  TGI: > 100 µM
SNB-78 CNS
  TGI: > 100 µM
XF 498 CNS
  TGI: > 100 µM
DLD-1 colon
  TGI: > 100 µM
A498 renal
  TGI: > 100 µM
LXFL 529 NSCLC
  TGI: > 100 µM
